Experimental data published in article PMC7561186, “Rational design of balanced dual-targeting antibiotics with limited resistance” (PLoS Biology, 2020).
Converted amounts (≈) assume the structure as drawn. “And” between values parts separate entries of the source, which are not always exact repeats. Identical values can stand only once. Like-named read-outs stand apart in the source and are kept apart here.

Tests used:
[1] = tested on: S. aureus clinical isolates; test: microbe, parasite or virus in culture; type: cell-based; settings: Staphylococcus aureus, read-out: MIC
[2] = Pharmacokinetics measurement in skin tissue; type: in vivo, mice
Procedure: Pharmacokinetics measurement of ULD1 and ULD2 in skin tissue was conducted parallelly with the mice dermal infection study. In all cases, skin tissue samples were collected at the termination and homogenized following the same method as homogenate preparation for bacterial enumeration. Before measurement, protein precipitation was performed by treating the samples with acetonitrile. Analytics were the performed by liquid chromatography coupled mass spectrometry (LC/MS/MS) on an AB SCIEX QTRAP mass spectrometer in electrospray, positive ions ionization mode, and with Multiple Reaction Monitoring scan mode. Samples were analyzed on a Phenomenex Luna 5u Phenyl-Hexyl 50 × 2.0 mm HPLC column in a mobile phase of A: acetonitrile/formic acid = 100/0.2 (v/v), and mobile phase of B: water / formic acid = 100/0.2 (v/v). The column’s temperature was set to 30 °C, the injection volumes were 10 μL, and measurement time was 5 minutes in all cases. Oxybutynin (0.01 ng/μL in acetonitrile) was used as an internal standard for the measurement. Finally, the concentration of the drug in tissue samples was calculated from the peak area ratio.

MCF-7 cells = settings: LDH assay
Procedure: Cytotoxicity of compounds on HepG2 and MCF-7 mammalian cell lines was determined by using a standard LDH assay. Briefly, HepG2 and MCF-7 cells were cultured in Eagle’s MEM medium (from Gibco) supplemented with 2 mM L-glutamine (Sigma), 100 U/mL penicillin (Sigma), and 100 μg/mL streptomycin (Sigma), and 10% FBS (Gibco) at 37 °C and under 5% CO2. Next, LDH assays were performed according to manufacturer instructions (Thermo Fisher Scientific, Massachusetts, USA). By using a CyQUANT LDH Cytotoxicity Assay Kit. Firstly, the cells were seeded in 96-well microtiter plates at 10^5 cells/mL (100 μL/well) and allowed to attach overnight. […] Lysis buffer (10 μL, Thermo Fisher Scientific) was then added to the maximal LDH activity control wells and incubated additional 45 minutes. The cell culture supernatant (50 μL) was then transferred to a new 96-well plate and mixed with 50 μL of the reaction mixture. After 30 minutes on room temperature, reactions were stopped with 50 μL of the Stop solution. Absorbance (490 nm and 680 nm) was measured with the automatic microplate reader Synergy 4 Hybrid Microplate Reader (BioTek, VT, USA). All experiments were performed in triplicates and repeated 3 times. Statistical significance (P < 0.05) was calculated with 2-tailed Welch’s t-test between treated groups and DMSO. The percentage of cytotoxicity was determined according to the following equation: %Cytotoxicity=(CompoundtreatedLDHactivity-SpontaneousLDHactivity/MaximumLDHactivity-SpontaneousLDHactivity)*100

human red blood cells = test: Haemolysis analysis
Procedure: Next, 600 μl of this EDTA-treated blood was washed in TBS buffer (10 mM TRIS, 150 mM NaCl [pH 7.2]) and centrifuged at 1,500 g for 1 minute until the supernatant became colorless. The aliquot of the final pellet (200 μL) was diluted to 5 mL with TBS buffer. […] Next, 100 μL of red blood cell suspension was pipetted into sterile Eppendorf tubes together with 100 μL of 2-fold serial dilution of the compounds (final concentration ranged between 100 μg/mL–0.1 μg/mL in a final volume of 200 μL). The plate was incubated for one hour at 37 °C followed by centrifugation at 1,500 g for 1 minute to sediment all red blood cells. Next, all supernatants were subjected to LDH and Haemolysis-Icterus-Lipaemia (HIL) index determination on a Roche Modular P800 analyzer according to the manufacturer’s instructions. After completion of this step the rest of the supernatants were transferred to sterile 96-well plates for the measurement of their optical density at 560-nm wavelength (in a Multiskan FC microplate reader, Thermo Scientific). Melittin (Bachem) at a concentration of 50 μg/mL, and TBS and 10% DMSO/TBS were served as positive (100% hemolysis) and negative (no hemolysis) controls, respectively.

Structure (SMILES): Cc1[nH]c(C(=O)Nc2nc3ccc(C(=O)O)cc3s2)c(Cl)c1Cl [ULD1]
- MIC ([1]; MRSA, S. aureus IHMA 1622527, MRSA / VSSA): 0.25 µg/mL (≈ 0.675 µM)
- MIC ([1]; MRSA, S. aureus IHMA 1666371, MRSA / VSSA): 0.5 µg/mL (≈ 1.35 µM)
- MIC ([1]; MRSA, S. aureus IHMA 1695391, MRSA / VSSA): 0.25 µg/mL (≈ 0.675 µM)
- MIC ([1]; MRSA, S. aureus IHMA 1703428, MRSA / VSSA): 1 µg/mL (≈ 2.7 µM)
- MIC ([1]; MRSA, S. aureus IHMA 1720350, MRSA / VSSA): 1 µg/mL (≈ 2.7 µM)
- MIC ([1]; MRSA, S. aureus IHMA 1732989, MRSA / VSSA): 1 µg/mL (≈ 2.7 µM)
- MIC ([1]; MRSA, S. aureus IHMA 1742231, MRSA / VSSA): 0.5 µg/mL (≈ 1.35 µM)
- MIC ([1]; MRSA, S. aureus IHMA 1766357, MRSA / VSSA): 0.25 µg/mL (≈ 0.675 µM)
- MIC ([1]; MSSA / NRS 12 / VISA, S. aureus IHMA 1308244, NRS12, MSSA / VISA): 1 µg/mL (≈ 2.7 µM)
- MIC ([1]; MSSA / NRS 13 / VISA, S. aureus IHMA 1308245, NRS13, MSSA / VISA): 1 µg/mL (≈ 2.7 µM)
- MIC ([1]; MSSA / NRS 14 / VISA, S. aureus IHMA 1308246, NRS14, MSSA / VISA): 1 µg/mL (≈ 2.7 µM)
- MIC ([1]; MSSA / NRS 17 / VISA, S. aureus IHMA 1308247, NRS17, MSSA / VISA): 1 µg/mL (≈ 2.7 µM)
- MIC ([1]; MSSA / NRS 28 / VISA, S. aureus IHMA 1308249, NRS28, MSSA / VISA): 1 µg/mL (≈ 2.7 µM)
- MIC ([1]; MSSA / NRS 52, S. aureus IHMA 1308252, NRS52, MSSA / VSSA* (*Expected VAN intermediate, confirmed VAN susceptible twice), test date 2018-11-07): 0.12 µg/mL (≈ 0.324 µM)
- MIC ([1]; MSSA / USA100 / VRSA, S. aureus IHMA 672236, VRS6, MSSA / VRSA, USA100): 0.25 µg/mL (≈ 0.675 µM)
- MIC ([1]; MSSA, S. aureus IHMA 1563826, MSSA / VSSA): 0.5 µg/mL (≈ 1.35 µM)
- MIC ([1]; MSSA, S. aureus IHMA 1565492, MSSA / VSSA): 0.25 µg/mL (≈ 0.675 µM)
- MIC ([1]; MSSA, S. aureus IHMA 1569499, MSSA / VSSA): 1 µg/mL (≈ 2.7 µM)
- MIC ([1]; MSSA, S. aureus IHMA 1569754, MSSA / VSSA): 0.25 µg/mL (≈ 0.675 µM)
- MIC ([1]; MSSA, S. aureus IHMA 1574202, MSSA / VSSA): 0.5 µg/mL (≈ 1.35 µM)
- MIC ([1]; MSSA, S. aureus IHMA 1575652, MSSA / VSSA): 0.5 µg/mL (≈ 1.35 µM)
- MIC ([1]; MSSA, S. aureus IHMA 1575779, MSSA / VSSA): 1 µg/mL (≈ 2.7 µM)
- MIC ([1]; MSSA, S. aureus IHMA 1576329, MSSA / VSSA): 1 µg/mL (≈ 2.7 µM)
- MIC ([1]; MSSA, S. aureus IHMA 1577800, MSSA / VSSA): 0.5 µg/mL (≈ 1.35 µM)
- MIC ([1]; MSSA, S. aureus IHMA 1578560, MSSA / VSSA): 1 µg/mL (≈ 2.7 µM)
- MIC ([1]; MSSA, S. aureus IHMA 1580233, MSSA / VSSA): 0.25 µg/mL (≈ 0.675 µM)
- MIC ([1]; MSSA, S. aureus IHMA 1580925, MSSA / VSSA): 0.25 µg/mL (≈ 0.675 µM)
- MIC ([1]; MSSA, S. aureus IHMA 1580955, MSSA / VSSA): 1 µg/mL (≈ 2.7 µM)
- MIC ([1]; MSSA, S. aureus IHMA 1582586, MSSA / VSSA): 1 µg/mL (≈ 2.7 µM)
- MIC ([1]; MSSA, S. aureus IHMA 1582691, MSSA / VSSA): 0.25 µg/mL (≈ 0.675 µM)
- MIC ([1]; MSSA, S. aureus IHMA 1584230, MSSA / VSSA): 1 µg/mL (≈ 2.7 µM)
- MIC ([1]; MSSA, S. aureus IHMA 1587279, MSSA / VSSA): 0.5 µg/mL (≈ 1.35 µM)
- MIC ([1]; MSSA, S. aureus IHMA 1591459, MSSA / VSSA): 0.5 µg/mL (≈ 1.35 µM)
- MIC ([1]; MSSA, S. aureus IHMA 1592749, MSSA / VSSA): 1 µg/mL (≈ 2.7 µM)
- MIC ([1]; MSSA, S. aureus IHMA 1592751, MSSA / VSSA): 0.5 µg/mL (≈ 1.35 µM)
- MIC ([1]; MSSA, S. aureus IHMA 1594297, MSSA / VSSA): 1 µg/mL (≈ 2.7 µM)
- MIC ([1]; MSSA, S. aureus IHMA 1597120, MSSA / VSSA): 1 µg/mL (≈ 2.7 µM)
- MIC ([1]; MSSA, S. aureus IHMA 1597125, MSSA / VSSA): 1 µg/mL (≈ 2.7 µM)
- MIC ([1]; MSSA, S. aureus IHMA 1599157, MSSA / VSSA): 1 µg/mL (≈ 2.7 µM)
- MIC ([1]; MSSA, S. aureus IHMA 1599506, MSSA / VSSA): 0.12 µg/mL (≈ 0.324 µM)
- MIC ([1]; MSSA, S. aureus IHMA 1602078, MSSA / VSSA): 0.5 µg/mL (≈ 1.35 µM)
- MIC ([1]; MSSA, S. aureus IHMA 1604586, MSSA / VSSA): 0.5 µg/mL (≈ 1.35 µM)
- MIC ([1]; MSSA, S. aureus IHMA 1604609, MSSA / VSSA): 0.5 µg/mL (≈ 1.35 µM)
- MIC ([1]; MSSA, S. aureus IHMA 1609919, MSSA / VSSA): 0.5 µg/mL (≈ 1.35 µM)
- MIC ([1]; MSSA, S. aureus IHMA 1622864, MSSA / VSSA): 0.5 µg/mL (≈ 1.35 µM)
- MIC ([1]; MSSA, S. aureus IHMA 1626392, MSSA / VSSA): 1 µg/mL (≈ 2.7 µM)
- MIC ([1]; MSSA, S. aureus IHMA 1713793, MSSA / VSSA): 1 µg/mL (≈ 2.7 µM)
- Drug concentration in mouse skin tissue (individual mice) ([2]; 73 h, 3 days twice-a-day topical 20 μL ointment containing 2% drug): 8853 ng/mL and 14630 ng/mL and 6624 ng/mL
- Drug concentration in mouse skin tissue, Mean ([2]; 73 h, 3 days twice-a-day topical 20 μL ointment containing 2% drug, n = 3): 10036 ng/mL
- skin concentration as multiple of the MIC in wild-type S. aureus VISA ([2]; topical treatment, mouse skin): up to 300 times the MIC
- Max. % inhibition at 100 µM (MCF-7 cells): Max. % inhibition at 100 µM: 0%
- LDH activity (human red blood cells; human red blood cells, 100 µg/mL): 40 Unit/mL
- hemolytic activity on human red blood cells (human red blood cells; in words): no biocompatibility concerns
